# Data reported in patent US20210395239A1 (Hoffmann-La Roche Inc., priority 2018, published 2021).
# Target: T1, human TLR8 (Homo sapiens, UniProt Q9NR97)
# T1 construct: host or cells: HEK293 (HEK-Blue hTLR8)
# T1 sequence (Q9NR97 27-1041): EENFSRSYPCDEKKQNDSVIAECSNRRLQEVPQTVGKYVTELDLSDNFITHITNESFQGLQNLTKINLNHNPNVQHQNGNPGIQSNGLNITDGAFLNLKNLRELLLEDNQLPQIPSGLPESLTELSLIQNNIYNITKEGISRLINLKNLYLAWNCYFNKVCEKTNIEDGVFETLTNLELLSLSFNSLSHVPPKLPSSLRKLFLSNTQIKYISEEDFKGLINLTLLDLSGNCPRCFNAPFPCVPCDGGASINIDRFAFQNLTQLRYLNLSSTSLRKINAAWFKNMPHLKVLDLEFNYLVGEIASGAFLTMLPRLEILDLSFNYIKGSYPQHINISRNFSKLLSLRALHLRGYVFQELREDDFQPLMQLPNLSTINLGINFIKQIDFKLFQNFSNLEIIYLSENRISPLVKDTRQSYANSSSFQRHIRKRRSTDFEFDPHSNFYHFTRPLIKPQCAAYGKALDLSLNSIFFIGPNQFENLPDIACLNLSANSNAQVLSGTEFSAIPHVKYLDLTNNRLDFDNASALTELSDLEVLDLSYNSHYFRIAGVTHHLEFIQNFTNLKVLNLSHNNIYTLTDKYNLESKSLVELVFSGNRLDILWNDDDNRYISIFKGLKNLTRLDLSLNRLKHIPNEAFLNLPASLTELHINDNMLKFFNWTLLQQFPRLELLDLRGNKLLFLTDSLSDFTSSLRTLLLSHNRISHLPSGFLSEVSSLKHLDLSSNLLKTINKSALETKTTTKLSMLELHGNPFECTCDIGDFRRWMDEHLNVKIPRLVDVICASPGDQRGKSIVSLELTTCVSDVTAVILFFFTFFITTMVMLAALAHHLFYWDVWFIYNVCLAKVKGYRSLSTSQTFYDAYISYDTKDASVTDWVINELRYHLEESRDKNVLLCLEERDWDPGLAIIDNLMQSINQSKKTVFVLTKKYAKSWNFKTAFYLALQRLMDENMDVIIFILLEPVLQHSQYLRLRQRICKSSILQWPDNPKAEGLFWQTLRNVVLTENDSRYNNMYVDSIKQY
# Assay: HEK293-Blue-hTLR-8 cells assay (SEAP reporter, R848 stimulation)
# Format: cell-based
# Conditions: HEK293-Blue-hTLR8 cells, R848, 20 hrs; read-out: HEK/hTLR8 IC50
# Outline: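 Antagonism read as reduced R848-induced SEAP reporter secretion, detected by QUANTI-Blue absorbance at 620–655 nm after 2 h. Reporter cells were exposed to compound dilutions in DMEM/10% FBS, 1% DMSO, for 20 h at 37° C.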
row,SMILES,IC50 [nM]
1,"COC1CN(c2ccc(C3CN(C[C@H]4CN(c5cc(=O)n(C)c6ncccc56)C[C@@H](C)O4)C3)cc2)C[C@H]1N (stereo in doubt) [Example 172, 4-[(2S,6R)-2-[[3-[4-[(3R,4R)-3-amino-4-methoxy-pyrrolidin-1-yl]phenyl]azetidin-1-yl]methyl]-6-methyl-morpholin-4-yl]-1-methyl-1,8-naphthyridin-2-one]",93
2,"C[C@@H]1CN(c2ccc(C#N)c3ncccc23)C[C@H](CN2CCN(c3cccc(N4CCNCC(O)C4)n3)CC2)O1 (stereo partly drawn) [Example 41, 5-[(2S,6R)-2-[[4-[6-(6-hydroxy-1,4-diazepan-1-yl)-2-pyridyl]piperazin-1-yl]methyl]-6-methyl-morpholin-4-yl]quinoline-8-carbonitrile]",32
3,"C[C@@H]1CN(c2ccc(C#N)c3ncccc23)C[C@H](CN2CCN(c3cc(N4CCNCC4)ccn3)CC2)O1 [Example 9, 5-[(2R,6S)-2-methyl-6-[[4-(4-piperazin-1-yl-2-pyridyl)piperazin-1-yl]methyl]morpholin-4-yl]quinoline-8-carbonitrile]",3
4,"C[C@@H]1CN(c2ccc(C#N)c3ncccc23)C[C@H](CN2CCN(c3nccc(N4CCNCC4)n3)CC2)O1 [Example 14, 5-[(2R,6S)-2-methyl-6-[[4-(4-piperazin-1-ylpyrimidin-2-yl)piperazin-1-yl]methyl]morpholin-4-yl]quinoline-8-carbonitrile]",3
5,"C[C@@H]1CN(c2ccc(C#N)c3ncccc23)C[C@H](CN2CCN(c3nc(N4CCNCC4)ncc3C#N)CC2)O1 [Example 50, 5-[(2S,6R)-2-[[4-(5-cyano-2-piperazin-1-yl-pyrimidin-4-yl)piperazin-1-yl]methyl]-6-methyl-morpholin-4-yl]quinoline-8-carbonitrile]",3
6,"Cc1cc(N2CCN(C[C@H]3CN(c4ccc(C#N)c5ncccc45)C[C@@H](C)O3)CC2)nc(N2CCOCC(N)C2)n1 (stereo partly drawn) [Example 56, 5-[(2S,6R)-2-[[4-[2-(6-amino-1,4-oxazepan-4-yl)-6-methyl-pyrimidin-4-yl]piperazin-1-yl]methyl]-6-methyl-morpholin-4-yl]quinoline-8-carbonitrile]",6
7,"Cc1cc(N2CCN(C[C@H]3CN(c4ccc(C#N)c5ncccc45)C[C@@H](C)O3)CC2)nc(N2CCNCC2)n1 [Example 47, 5-[(2R,6S)-2-methyl-6-[[4-(6-methyl-2-piperazin-1-yl-pyrimidin-4-yl)piperazin-1-yl]methyl]morpholin-4-yl]quinoline-8-carbonitrile]",3
8,"COC1CN(c2nccc(N3CCN(C[C@H]4CN(c5ccc(C#N)c6ncccc56)C[C@@H](C)O4)CC3)n2)C[C@H]1N (stereo in doubt) [Example 52, 5-[(2S,6R)-2-[[4-[2-[(3R,4R)-3-amino-4-methoxy-pyrrolidin-1-yl]pyrimidin-4-yl]piperazin-1-yl]methyl]-6-methyl-morpholin-4-yl]quinoline-8-carbonitrile]",3
9,"C[C@@H]1CN(c2ccc(C#N)c3ncccc23)C[C@H](CN2CCN(c3ccnc(N4CCN(C(=O)C5CCN5)CC4)n3)CC2)O1 (stereo partly drawn) [Example 34, 5-[(2S,6R)-2-[[4-[2-[4-(azetidine-2-carbonyl)piperazin-1-yl]pyrimidin-4-yl]piperazin-1-yl]methyl]-6-methyl-morpholin-4-yl]quinoline-8-carbonitrile]",4
10,"C[C@@H]1CN(c2ccc(C#N)c3ncccc23)C[C@H](CN2CCN(c3ccc([C@@H]4CNCCO4)cc3)CC2)O1 [Example 19, 5-[(2R,6S)-2-methyl-6-[[4-[4-[(2R)-morpholin-2-yl]phenyl]piperazin-1-yl]methyl]morpholin-4-yl]quinoline-8-carbonitrile]",12
11,"C[C@@H]1CN(c2ccc(C#N)c3ncccc23)C[C@H](CN2CCN(c3cccc(N4CC(N)C(F)C4)n3)CC2)O1 (stereo partly drawn) [Example 40, 5-[(2S,6R)-2-[[4-[6-(3-amino-4-fluoro-pyrrolidin-1-yl)-2-pyridyl]piperazin-1-yl]methyl]-6-methyl-morpholin-4-yl]quinoline-8-carbonitrile]",17
12,"C[C@@H]1CN(c2ccc(C#N)c3ncccc23)C[C@H](CN2CCN(c3ccc([C@H]4CNCCO4)cc3)CC2)O1 [Example 20, 5-[(2R,6S)-2-methyl-6-[[4-[4-[(2S)-morpholin-2-yl]phenyl]piperazin-1-yl]methyl]morpholin-4-yl]quinoline-8-carbonitrile]",10
13,"C[C@@H]1CN(c2ccc(C#N)c3ncccc23)C[C@H](CN2CCN(c3cccc(N[C@H]4CNC[C@@H]4F)n3)CC2)O1 [Example 35, 5-[(2S,6R)-2-[[4-[6-[[(3S,4S)-4-fluoropyrrolidin-3-yl]amino]-2-pyridyl]piperazin-1-yl]methyl]-6-methyl-morpholin-4-yl]quinoline-8-carbonitrile]",33
14,"C[C@@H]1CN(c2ccc(C#N)n3ncc(F)c23)C[C@H](CN2CCN(c3ccc(N[C@H]4CNC[C@H]4F)nc3)CC2)O1 [Example 167, 3-fluoro-4-[(2S,6R)-2-[[4-[6-[[(3S,4R)-4-fluoropyrrolidin-3-yl]amino]-3-pyridyl]piperazin-1-yl]methyl]-6-methyl-morpholin-4-yl]pyrazolo[1,5-a]pyridine-7-carbonitrile]",34
15,"C[C@@H]1CN(c2ccc(C#N)c3ncccc23)C[C@H](CN2CCN(c3ccnc(N4CCN(C(=O)CN(C)C)CC4)n3)CC2)O1 [Example 32, 5-[(2S,6R)-2-[[4-[2-[4-[2-(dimethylamino)acetyl]piperazin-1-yl]pyrimidin-4-yl]piperazin-1-yl]methyl]-6-methyl-morpholin-4-yl]quinoline-8-carbonitrile]",3
16,"CO[C@H]1CN(c2nc(C)cc(N3CCN(C[C@H]4CN(c5ccc(C#N)c6ncccc56)C[C@@H](C)O4)CC3)n2)CC1N (relative stereo) [Example 59, 5-[(2R,6S)-2-methyl-6-[[4-[6-methyl-2-[trans-3-amino-4-methoxy-pyrrolidin-1-yl]pyrimidin-4-yl]piperazin-1-yl]methyl]morpholin-4-yl]quinoline-8-carbonitrile]",3
17,"C[C@@H]1CN(c2ccc(C#N)n3ncc(F)c23)C[C@H](CN2CCN(c3ccc(C4CNCCO4)cc3F)CC2)O1 (stereo in doubt) [Example 183, 3-fluoro-4-[(2S,6R)-2-[[4-[2-fluoro-4-[(2S)-morpholin-2-yl]phenyl]piperazin-1-yl]methyl]-6-methyl-morpholin-4-yl]pyrazolo[1,5-a]pyridine-7-carbonitrile]",13
18,"COc1cnc(N2CCNCC2)nc1N1CCN(C[C@H]2CN(c3ccc(C#N)c4ncccc34)C[C@@H](C)O2)CC1 [Example 48, 5-[(2S,6R)-2-[[4-(5-methoxy-2-piperazin-1-yl-pyrimidin-4-yl)piperazin-1-yl]methyl]-6-methyl-morpholin-4-yl]quinoline-8-carbonitrile]",4
19,"C[C@@H]1CN(c2ccc(C#N)n3ncc(F)c23)C[C@H](CN2CCN(c3ccc(C4(C)CNCCO4)cc3)CC2)O1 (stereo partly drawn) [Example 185, 3-fluoro-4-[(2R,6S)-2-methyl-6-[[4-[4-(2-methylmorpholin-2-yl)phenyl]piperazin-1-yl]methyl]morpholin-4-yl]pyrazolo[1,5-a]pyridine-7-carbonitrile]",33
